Experiments:
[1] = tested on: HeLa WT cells; experiment: Endocytosis pathway study with inhibitors; assay type: cell-based; conditions: 1 mM amiloride 2 h, 75 nM RNP, 4 h, flow cytometry
Experimental: (§1) sgRNA amount in naked Cas9/sgRNA ribonucleoproteins (Cas9 RNPs) or Cas9 RNP nanocarriers were determined using a Quant-iTTM RiboGreen® RNA assay kit (Invitrogen, CA, USA). 50 μL of naked Cas9 RNPs or Cas9 RNP nanocarriers con-taining 250 ng Cas9 protein and 50 ng sgRNA were mixed with 50 μL of TE buffer and were added to the 96-well plate. The plate was incubated for 10 min. Afterwards, 100 μL of Ribogreen solution (diluted 1:100 in TE buffer) was added to each well.
(§2) The plate was incubated for another 5 min. Ribogreen fluorescence intensity was detected using a microplate reader (Spectra-fluor Plus, Tecan, Männedorf, Switzerland) with excitation and emission wavelength of 485 and 528 nm, respectively. […]
(§3) Cells were harvested and resuspended in 600 μL of FACS buffer (PBS buffer containing 10 % FBS). […] The DAPI signal and BFP fluorescence were detected with 405 nm excitation and 450 nm emission. The eGFP and ATTO488 fluorescence was assayed with 488 nm excitation and 530 nm emission. The ATTO647N fluorescence was assayed with 640 nm excitation and 670 nm emission. Ten thousand of isolated live cells were counted and evaluated. The data were analyzed using FlowJo 7.6.5 by FlowJo, LLC (Becton, Dickinson and Company, USA).
(§4) Cell viability was determined using an MTT assay. […]
(§5) Cellular uptake of Cas9 RNP nanocarriers was evaluated by flow cytometry and confocal laser scanning microscopy (CLSM). […]

[2] = Dilution stability of Cas9 RNP nanocarriers (DLS); assay type: physicochemical; conditions: prepared at 375 nM RNP, diluted with HBG, 0.1 nM RNP
Experimental: LogD7.4 determination of xenopeptides
Octanol-water partition coefficient D at pH 7.4 (logD7.4) was determined as previously reported with slight modification.5
Scheme S3 illustrates the logD7.4 determination procedures of all xenopeptides in this study. Briefly, 10 μL of 10 mg/mL xenopeptides in water were diluted with 90 μL HEPES buffer (20 mM, pH 7.4) in 1.5 mL reaction tubes. 100 μL n-octanol were then added. The tubes were shaken at 1400 rpm for 24 h. Afterwards, the tubes were centrifuged followed by storage at 4 °C for 1 h to separate n-octanol and water phases. 70 μL of each phase were injected for HPLC analysis. The extinction at 280 nm was monitored and the peak area (A) of the xenopeptides was calculated. LogD7.4 was calculated as log(Aoctanol / Awater).
All experiments were performed in triplicate.
Preparation of Cas9 RNP and Cas9 RNP/ssDNA nanocarriers […]
The hydrodynamic size, PDI and zeta potential of Cas9 RNP nanocarriers were measured by DLS using a Zetasizer Nano ZS (Malvern Instruments, UK). […] The hydrodynamic size of Cas9 RNP nanocarriers containing 1.25 μg Cas9 protein and 0.25 μg sgRNA (Cas9/sgRNA, 1:1 molar ratio) in 100 μL HBG was measured.
Afterwards, 700 μL HEPES buffer (20 mM, pH 7.4) were added to each sample and the soluti on was mixed for the zeta potential measurement. […] The size and zeta potential of diluted samples were measured as described above. […]

[3] = tested on: HeLa WT cells; experiment: Cellular uptake of Cas9 RNP nanocarriers (flow cytometry); assay type: cell-based; conditions: 75 nM RNP, 20 % ATTO488-sgRNA, 4 h, flow cytometry MFI
Experimental: as §1, §2, §3, §4, §5

## CCCCC/C=C\C/C=C\CCCCCCCC(=O)NCCCC[C@H](NC(=O)CCCCCCC/C=C\C/C=C\CCCCC)C(=O)NCCCC[C@H](NC(=O)c1cc2ccccc2cc1C(=O)NCCNCCNCCNCCNC(=O)[C@H](Cc1ccc(O)cc1)NC(=O)[C@H](Cc1ccc(O)cc1)NC(=O)[C@H](Cc1ccc(O)cc1)NC(=O)[C@@H](N)CCCCN=[N+]=[N-])C(=O)NCCNCCNCCNCCNC(=O)c1cc2ccccc2cc1C(=O)N[C@@H](Cc1ccc(O)cc1)C(=O)N[C@@H](Cc1ccc(O)cc1)C(=O)N[C@@H](Cc1ccc(O)cc1)C(=O)O [Ntp1-LinA]
[1]
  Cas9 RNP uptake after pretreatment with amiloride (macropinocytosis): blocked
[2]
  nanocarrier size detectability upon dilution: still detectable
[3]
  enhanced sgRNA uptake compared to the Stp-based analogue: 7.3 fold
